Measured values as given in PubChem BioAssay (NCI).
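The compound was tested at five concentrations on cells cultured in 96-well plates, with a 48-hour exposure period. At the GI50, growth is halved. Definition used: TGI = concentration required for complete inhibition of growth.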

How the values were obtained:
Assay in all cases: NCI-60 cell line screen, 48 h
SF-539 CNS = system: SF-539 CNS
U251 CNS = system: U251 CNS
CCRF-CEM leukemia = system: CCRF-CEM leukemia
RPMI-8226 leukemia = system: RPMI-8226 leukemia
UACC-62 melanoma = system: UACC-62 melanoma
PC-3 prostate = system: PC-3 prostate
UO-31 renal = system: UO-31 renal
KM12 colon = system: KM12 colon
M14 melanoma = system: M14 melanoma
HL-60(TB) leukemia = system: HL-60(TB) leukemia
BT-549 breast = system: BT-549 breast
SF-295 CNS = system: SF-295 CNS
MALME-3M melanoma = system: MALME-3M melanoma
SNB-19 CNS = system: SNB-19 CNS
SW-620 colon = system: SW-620 colon
MDA-MB-435 = system: MDA-MB-435
EKVX NSCLC = system: EKVX NSCLC
SK-OV-3 ovarian = system: SK-OV-3 ovarian
786-0 renal = system: 786-0 renal
CAKI-1 renal = system: CAKI-1 renal
K-562 leukemia = system: K-562 leukemia
NCI-H522 lung = system: NCI-H522 lung
SN12C renal = system: SN12C renal
IGROV1 ovarian = system: IGROV1 ovarian
SK-MEL-28 melanoma = system: SK-MEL-28 melanoma
SK-MEL-5 melanoma = system: SK-MEL-5 melanoma
NCI-H460 lung = system: NCI-H460 lung
DU-145 prostate = system: DU-145 prostate
HCT-116 colon = system: HCT-116 colon
HT29 colon = system: HT29 colon

COC(=O)CNC(=O)COc1c(OC)c(OC)cc2oc(-c3cccc(C(=O)Nc4ccc(Cl)cc4)c3)cc(=O)c12
TGI (SF-539 CNS): 20.9 µM
GI50 (U251 CNS): 4.82 µM
TGI (U251 CNS): 16.5 µM
GI50 (CCRF-CEM leukemia): > 100 µM
TGI (CCRF-CEM leukemia): > 100 µM
GI50 (RPMI-8226 leukemia): 6.51 µM
TGI (RPMI-8226 leukemia): > 100 µM
GI50 (UACC-62 melanoma): 6.1 µM
TGI (UACC-62 melanoma): 19.4 µM
GI50 (PC-3 prostate): 10.3 µM
TGI (PC-3 prostate): 33.7 µM
GI50 (UO-31 renal): 13.8 µM
TGI (UO-31 renal): 26.7 µM
GI50 (KM12 colon): 27.5 µM
TGI (KM12 colon): > 100 µM
GI50 (M14 melanoma): 7.98 µM
TGI (M14 melanoma): 25 µM
GI50 (HL-60(TB) leukemia): 13.3 µM
TGI (HL-60(TB) leukemia): > 100 µM
GI50 (BT-549 breast): 3.05 µM
TGI (BT-549 breast): 12.3 µM
GI50 (SF-295 CNS): 13.9 µM
TGI (SF-295 CNS): 26.9 µM
GI50 (MALME-3M melanoma): 4.75 µM
TGI (MALME-3M melanoma): 17.7 µM
GI50 (SNB-19 CNS): 10.6 µM
TGI (SNB-19 CNS): 22.4 µM
GI50 (SW-620 colon): 14 µM
TGI (SW-620 colon): 69.7 µM
GI50 (MDA-MB-435): 6.57 µM
TGI (MDA-MB-435): 21.9 µM
GI50 (EKVX NSCLC): 12.4 µM
TGI (EKVX NSCLC): 30.1 µM
GI50 (SK-OV-3 ovarian): 11.1 µM
TGI (SK-OV-3 ovarian): 23.6 µM
GI50 (786-0 renal): 5.19 µM
TGI (786-0 renal): 17.2 µM
GI50 (CAKI-1 renal): 18.9 µM
TGI (CAKI-1 renal): 41.6 µM
GI50 (K-562 leukemia): 25.6 µM
TGI (K-562 leukemia): > 100 µM
GI50 (NCI-H522 lung): 7.22 µM
TGI (NCI-H522 lung): 20.1 µM
GI50 (SN12C renal): 4.28 µM
TGI (SN12C renal): 17 µM
GI50 (IGROV1 ovarian): 11.4 µM
TGI (IGROV1 ovarian): 24.8 µM
GI50 (SK-MEL-28 melanoma): 5.9 µM
TGI (SK-MEL-28 melanoma): 18.9 µM
GI50 (SK-MEL-5 melanoma): 3.75 µM
TGI (SK-MEL-5 melanoma): 14.7 µM
GI50 (NCI-H460 lung): 4.03 µM
TGI (NCI-H460 lung): 15.1 µM
GI50 (DU-145 prostate): 10.6 µM
TGI (DU-145 prostate): 28.3 µM
GI50 (HCT-116 colon): 13.9 µM
TGI (HCT-116 colon): 48.5 µM
GI50 (HT29 colon): 6.79 µM
TGI (HT29 colon): > 100 µM
